Results as given in patent publication US8530491B2, “Antimalarial compounds with flexible side-chains” (Medicines for Malaria Venture (MMV), priority 2007, dated 2013).
Converted amounts (≈) assume the structure as drawn. Read-outs that look alike come from different tables or passages of the source.

Tests used:
[1] = target: T1, Pf DHFR N51I + C59R + S108N + I164L (Plasmodium falciparum, UniProt A7UD81, C59R/I164L/N51I/S108N); experiment: biochemical
T1 construct: made in house; host or cells: E. coli BL21(DE3)pLysS
T1 sequence (A7UD81 whole entry N51I/C59R/S108N/I164L): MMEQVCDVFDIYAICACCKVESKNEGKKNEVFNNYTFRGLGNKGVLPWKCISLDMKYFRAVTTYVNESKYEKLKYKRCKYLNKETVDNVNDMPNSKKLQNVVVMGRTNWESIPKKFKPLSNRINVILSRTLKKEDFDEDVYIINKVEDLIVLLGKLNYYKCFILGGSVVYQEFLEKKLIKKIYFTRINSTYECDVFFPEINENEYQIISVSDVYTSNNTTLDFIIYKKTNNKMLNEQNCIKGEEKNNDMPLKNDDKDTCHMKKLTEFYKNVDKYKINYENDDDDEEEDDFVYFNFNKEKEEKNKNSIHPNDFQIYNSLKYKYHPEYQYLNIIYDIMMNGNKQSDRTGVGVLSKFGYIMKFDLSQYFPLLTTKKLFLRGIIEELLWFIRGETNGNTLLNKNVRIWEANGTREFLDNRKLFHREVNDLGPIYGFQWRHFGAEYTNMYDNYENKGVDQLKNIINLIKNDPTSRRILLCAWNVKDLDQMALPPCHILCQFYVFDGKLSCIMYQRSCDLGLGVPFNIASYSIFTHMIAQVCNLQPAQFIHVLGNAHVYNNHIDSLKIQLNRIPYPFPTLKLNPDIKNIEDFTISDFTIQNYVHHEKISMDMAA

Pf DHFR WT = target: T2, Pf DHFR WT (Plasmodium falciparum, UniProt A7UD81); experiment: Pf DHFR enzyme inhibition (Ki), wild type; format: biochemical
T2 construct: made in house; host or cells: E. coli BL21(DE3)pLysS
T2 sequence (A7UD81 1-608): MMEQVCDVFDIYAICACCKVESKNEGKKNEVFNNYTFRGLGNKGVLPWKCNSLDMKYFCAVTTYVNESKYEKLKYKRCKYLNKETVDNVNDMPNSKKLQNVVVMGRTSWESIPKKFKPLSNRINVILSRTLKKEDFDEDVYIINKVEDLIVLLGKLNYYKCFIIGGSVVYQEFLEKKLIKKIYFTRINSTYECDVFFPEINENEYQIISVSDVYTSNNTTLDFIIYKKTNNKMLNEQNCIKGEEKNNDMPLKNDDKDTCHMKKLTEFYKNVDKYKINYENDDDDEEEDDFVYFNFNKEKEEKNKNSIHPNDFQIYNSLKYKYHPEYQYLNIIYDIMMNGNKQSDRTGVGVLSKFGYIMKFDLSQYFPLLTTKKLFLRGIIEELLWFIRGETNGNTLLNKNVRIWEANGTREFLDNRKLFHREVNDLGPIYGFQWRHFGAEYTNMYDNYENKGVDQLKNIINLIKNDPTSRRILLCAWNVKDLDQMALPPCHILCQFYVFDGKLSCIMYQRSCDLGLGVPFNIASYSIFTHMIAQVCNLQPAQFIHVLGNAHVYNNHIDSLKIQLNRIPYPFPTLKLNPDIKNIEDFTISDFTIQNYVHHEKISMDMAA

[2] = system: P. falciparum TM4/8.2 (wild type); experiment: In vitro anti-plasmodial activity, [3H]-hypoxanthine incorporation; format: cell-based, Plasmodium falciparum
P. chabaudi AS [3] = experiment: Standard 4-day Peters' test against P. chabaudi AS in mice; format: in vivo, Plasmodium chabaudi; conditions: for ED50 / ED90: Plasmodium chabaudi, 96 h, oral, 4-day Peters' test; for ED50: 50% reduction in parasitaemia; for ED90: 90% reduction in parasitaemia; for ED90 P. chabaudi AS, oral: oral administration, mice (Table 1)
Method: (§1) Briefly, 20 gr CD1 male mice (Charles Rivers, UK) were kept in specific pathogen-free conditions and fed ad libitum. For oral administration, compounds were dissolved in standard suspending formula (SSV) [0.5% sodium carboxymethylcellulose, 0.5% benzyl alcohol, 0.4% Tween 80, 0.9% NaCl (all Sigma)] and for intraperitoneal or subcutaneous administration compounds were dissolved in 0.5% w/v hydroxypropylmethylcellulose, 0.4% v/v Tween 80, 0.5% V/v benzyl alcohol in de-ionised water]. Mice were infected intravenously with 4×10^6 infected red cells and treated orally (p.o.) with 0.2 ml of a solution of the test compounds two hours (day 0) and on days 1, 2 and 3 post-infection. Parasitaemia was determined by microscopic examination of Giemsa stained blood films taken on day 4. Microscopic counts of blood films from each mouse were processed using GraphPad Prism 4 (GraphPad Software, Inc., CA, USA) and expressed as percentages of inhibition from the arithmetic mean parasitaemias of each group in relation to the untreated group. Compounds were tested in an initial screening at 30 mg/kg/day against P. chabaudi AS (non-resistant) over the period described and percentages of inhibition calculated in relation to the untreated controls. Compounds giving 80% inhibition or above were then tested in the same model under a range of doses over the period described in order to obtain dose response curves and calculate their ED50 and ED90 values. […] From the ED90 values is clear that a number of compounds have exquisite activity in this model and are also tested in P. chabaudi ASP and P. berghei ANKA.

S. aureus = experiment: Antibacterial activity, minimal inhibitory concentration on agar plates; format: cell-based; conditions: Staphylococcus aureus; complete inhibition of growth on agar plates
[4] = Cytotoxicity in mammalian cells; format: cell-based; conditions: African green monkey, Vero cells (African green monkey kidney epithelial cells)
E. coli = experiment: Antibacterial activity, minimal inhibitory concentration on agar plates; format: cell-based; conditions: Escherichia coli; complete inhibition of growth on agar plates
[5] = Oral bioavailability and pharmacokinetics in male Sprague Dawley rats; format: in vivo; conditions: for Oral BA: i.v. and oral dosing; for Vd / clearance / half-life: rat, plasma; for Vd: intravenous; for clearance / half-life: iv, i.v. dosing; for clearance: read-out: i.v. CL(plasma); for half-life: read-out: i.v. t1/2 (converted)
Method: Rats had free access to water throughout the pre- and post-dose sampling period, and access to food was re-instated 4 hours post-dosing. Test compounds were administered intravenously as a 5 minute constant rate infusion (1.0 mL per rat) and orally by gavage (1.0 mL per rat). The IV formulations were typically buffered aqueous solutions containing a co-solvent if required for solubilization. The oral formulations were prepared as suspensions in hydroxypropylmethyl cellulose or carboxymethyl cellulose, each with the addition of Tween 80 and benzyl alcohol. Samples of arterial blood and total urine were collected up to 24 hours post-dose. Arterial blood was collected directly into borosilicate vials (at 4° C.) containing heparin, a protease inhibitor cocktail, potassium fluoride, and EDTA to minimise the potential for ex vivo degradation of the test compound in blood/plasma samples. Once collected, blood samples were centrifuged, supernatant plasma was removed and stored at −20° C., and plasma concentrations of test compound were determined by LCMS.

P. falciparum Wild Type = experiment: Anti-malarial activity against P. falciparum in vitro, wild type (Table 1); format: cell-based, Plasmodium falciparum
[6] = system: P. falciparum Resistant mutant; experiment: Anti-malarial activity against P. falciparum in vitro, resistant mutant (Table 1); format: cell-based, Plasmodium falciparum; conditions: read-out: IC50 against P. falciparum in vitro, Resistant mutant
[7] = rat, in vivo
P. chabaudi AS [8] = experiment: Standard 4-day Peters' test against P. chabaudi AS in mice; format: in vivo, Plasmodium chabaudi; conditions: s.c. administration, mice (Table 1)
[9] = Pharmacokinetics of P218 / pro-drug P195 in male Swiss outbred mice; format: in vivo
Method: In a separate study, the oral bioavailability of P195, the ester pro-drug of P218 which contains a carboxylic acid side chain was investigated in mice. Male Swiss outbred mice were administered P218 (the free acid) intravenously by bolus tail vein injection at a nominal dose of 5 mg/kg and P195 (the ester pro-drug) orally by gavage at a nominal dose of 20 mg/kg. […] Blood sampling was conducted by cardiac puncture with a single sample per mouse, and two mice per time point over 16 hours post dosing. Blood samples were separated and plasma analyzed by LCMS as described above. The plasma concentration versus time profiles for P218 following IV administration of P218 and following oral administration of the pro-drug P195 are shown in FIG. 9. Plasma concentrations of P218 remained above the lower limit of quantitation (LLQ=0.0014 μM) for 7.5 h following IV administration.

P. chabaudi ASP = experiment: Standard 4-day Peters' test against P. chabaudi ASP (pyrimethamine-resistant) in mice; format: in vivo, Plasmodium chabaudi
Method: as §1

P. berghei ANKA = experiment: Standard 4-day Peters' test against P. berghei ANKA in mice; format: in vivo, Plasmodium berghei; conditions: oral, lethal non-resistant strain
Method: as §1

[10] = Plasmodium falciparum, read-out: IC50-P. falciparum TM4/8.2 (WT), TM4/8.2

Row | Compound | Ki [1] | Ki (Pf DHFR WT) | IC50 [2, 10] | ED50 (P. chabaudi AS [3]) | ED90 (P. chabaudi AS [3]) | MIC (S. aureus) | IC50 [4] | MIC (E. coli) | further results
1 | CCOC(=O)CCCOc1ccc2nc(C)cc(OCCCOc3c(N)nc(N)nc3CC)c2c1 [Compound P219, 2,4-diamino-6-ethyl-5-(3-(6-(3-ethoxycarbonylpropoxy)-2-methylquinolin-4-yloxy)propoxy)pyrimidine] | 1.25 ± 0.22 nM | 0.52 ± 0.08 nM | < 10 nM | > 5 mg/kg | > 5 mg/kg | – | – | – | –
2 | CCc1nc(N)nc(N)c1OCCCOc1cc(C)nc2cc(F)ccc12 [Compound P157, 2,4-diamino-6-ethyl-5-(3-(7-fluoro-2-methylquinolin-4-yloxy)propoxy)pyrimidine] | 3.95 ± 0.06 nM | 1.26 ± 0.24 nM | 2.4 ± 0.7 nM | 0.008 mg/kg | 0.012 mg/kg | > 25 µM | 100 nM | > 25 µM | Oral BA [5]: 25.5 % of dose; Vd [5]: 15.2 L/kg; clearance [5]: 74.7 mL/min/kg; half-life [5]: 17.6 h
3 | CC1(C)N=C(N)N=C(N)N1OCCCOc1cc(Cl)c(Cl)cc1Cl [WR99210] | – | – | – | – | – | – | – | – | IC50 (P. falciparum Wild Type; wild type): 0.6 nM; IC50 ([6]; resistant mutant): 18 nM; Oral BA in rats [7]: <1%; ED90 P. chabaudi AS, s.c. (P. chabaudi AS [8]): 1.1 mg/kg; ED90 P. chabaudi AS, oral (P. chabaudi AS [3]): 74.2 mg/kg
4 | CCc1nc(N)nc(N)c1OCCCOc1cc(C)nc2ccccc12 [Compound P154, 2,4-diamino-6-ethyl-5-(3-(2-methylquinolin-4-yloxy)propoxy)pyrimidine] | 4.8 ± 0.36 nM | 1.29 ± 0.14 nM | 2 ± 0.8 nM | 0.006 mg/kg | 0.043 mg/kg | > 50 µM | 94 nM | 10 to 50 µM (≈ 3.53 to 17.7 µg/mL) | Oral BA [5]: 9.3 % of dose; Vd [5]: 8.8 L/kg; clearance [5]: 84.1 mL/min/kg; half-life [5]: 3.2 h
5 | COc1cc(Cc2cnc(N)nc2N)cc(OC)c1OC [Trimethoprim, trimethoprim, reference compound] | – | – | – | – | – | 1 to 10 µM (≈ 0.29 to 2.9 µg/mL) | – | 1 to 10 µM (≈ 0.29 to 2.9 µg/mL) | –
6 | CCOC(=O)CCc1ccccc1OCCCOc1c(N)nc(N)nc1CC [Compound P195, 2,4-diamino-6-ethyl-5-(3-(2-(2-ethoxycarbonylethyl)phenoxy)propoxy)pyrimidine] | 1.88 ± 0.13 nM | 0.26 ± 0.02 nM | 2.5 ± 0.7 nM | 0.21 mg/kg | 0.69 mg/kg | – | 1250 nM | – | plasma concentrations of the pro-drug P195 ([9]; oral P195 20 mg/kg, all time points, below lower limit of quantitation): < 1.4 nM
7 | CC1(C)N=C(N)N=C(N)N1c1ccc(Cl)cc1 [Cycloguanil, cycloguanil] | – | – | – | – | – | – | – | – | IC50 (P. falciparum Wild Type; Plasmodium falciparum): 37 nM; IC50 ([6]; Plasmodium falciparum): > 100000 nM; Oral BA in rats [7]: 59.3%; ED90 P. chabaudi AS, s.c. (P. chabaudi AS [8]): 3.7 mg/kg; ED90 P. chabaudi AS, oral (P. chabaudi AS [3]): 6.2 mg/kg
8 | CCc1nc(N)nc(N)c1OCCCOc1cc(C)nc2ccc(OCCCC(=O)O)cc12 [Compound P169, 2,4-diamino-6-ethyl-5-(3-(6-(3-carboxypropoxy)-2-methylquinolin-4-yloxy)propoxy)pyrimidine] | 0.36 ± 0.01 nM | 0.15 ± 0.04 nM | 0.22 ± 0.06 nM | > 29 mg/kg | > 29 mg/kg | – | 420 nM | – | IC50 ([2]; read-out: IC50-P. falciparum TM4/8.2 (WT), TM4/8.2): 0.3 ± 0.1 nM
9 | CCc1nc(N)nc(N)c1OCCCOc1ccccc1CCC(=O)O [Compound P218, 2,4-diamino-6-ethyl-5-(3-(2-(2-carboxyethyl)phenoxy)propoxy)pyrimidine] | 0.54 ± 0.12 nM | 0.43 ± 0.07 nM | 6 nM | < 0.63 mg/kg | < 0.63 mg/kg | – | > 10000 nM | – | time plasma concentration of P218 remained above LLQ following oral administration of ester prodrug ([9]; P195 oral 20 mg/kg, mice, LLQ=0.0014 μM): 16 h; time plasma concentrations of P218 remained above LLQ following IV administration ([9]; P218 IV 5 mg/kg, mice, LLQ=0.0014 μM): 7.5 h; bioavailability ([9]; male, Swiss outbred, mouse, plasma, oral, 20 mg/kg): ~50%
10 | CCc1nc(N)nc(N)c1-c1ccc(Cl)cc1 [Pyrimethamine, pyrimethamine, reference compound] | – | – | 58 ± 30 nM | 0.25 mg/kg | 0.88 mg/kg | > 50 µM | – | > 50 µM | ED50 (P. chabaudi ASP; Plasmodium chabaudi, po, read-out: ED50 P. chabaudi ASP): 1.8 mg/kg; ED90 P. chabaudi ASP (P. chabaudi ASP; oral, pyrimethamine-resistant strain): 13.5 mg/kg; IC50 (P. falciparum Wild Type; Plasmodium falciparum): 79 nM; IC50 ([6]; Plasmodium falciparum): > 100000 nM; ED50 (P. berghei ANKA; Plasmodium berghei): 0.5 mg/kg; ED90 P. berghei ANKA (P. berghei ANKA): 3.2 mg/kg; Oral BA in rats [7]: ~100%; ED90 P. chabaudi AS, s.c. (P. chabaudi AS [8]): 0.25 mg/kg; ED90 P. chabaudi AS, oral (P. chabaudi AS [3]): 0.88 mg/kg
11 | CCc1nc(N)nc(N)c1OCCCOc1ccnc2ccc(F)cc12 [Compound P153, 2,4-diamino-6-ethyl-5-(3-(6-fluoro-quinolin-4-yloxy)propoxy)pyrimidine] | 3.41 ± 0.27 nM | 1.41 ± 0.13 nM | 0.25 ± 0.1 nM | 0.006 mg/kg | 0.013 mg/kg | 10 to 50 µM (≈ 3.57 to 17.9 µg/mL) | 37 nM | 10 to 50 µM (≈ 3.57 to 17.9 µg/mL) | Oral BA [5]: 26 % of dose; Vd [5]: 17.3 L/kg; clearance [5]: 69.6 mL/min/kg; half-life [5]: 15.7 h
12 | C[C@H]1[C@@H](O)O[C@@H]2O[C@@]3(C)CC[C@H]4[C@H](C)CC[C@@H]1[C@@]24OO3 [Dihydroartemisinin, reference compound] | – | – | – | – | – | – | – | – | IC50 ([2]; Plasmodium falciparum, read-out: IC50-P. falciparum TM4/8.2 (WT), TM4/8.2, listed as printed in nM): 1.69 ± 0.39 nM
13 | CCN(CC)CCCC(C)Nc1ccnc2cc(Cl)ccc12 (centres unmarked) [Chloroquine, chloroquine, reference compound] | – | – | – | – | – | – | – | – | IC50 ([2]; Plasmodium falciparum, read-out: IC50-P. falciparum TM4/8.2 (WT)): 27 nM
14 | CCOC(=O)CCCOc1ccccc1OCCCOc1c(N)nc(N)nc1CC [Compound P217, 2,4-diamino-6-ethyl-5-(3-(2-(3-ethoxycarbonylpropoxy)phenoxy)propoxy)pyrimidine] | 3.3 ± 0.52 nM | 0.69 ± 0.1 nM | 4 nM | < 0.63 mg/kg | < 0.63 mg/kg | – | 5330 nM | – | –
